Results published in PMC6679700 (International Journal of Nanomedicine, 2019).

What was measured:
[1] = Solubility of FK506 in water, MCE and MCE ME; type: physicochemical; conditions: menthol/camphor eutectic, ratio 3/1 (w/w)
[2] = cited from earlier work
TRPM8 = conditions: skin; cited from earlier work

SMILES	Solubility of FK506 in MCE [1] [mg/mL]	Aqueous solubility [2] [mg/mL]	Duration of cool sensation (TRPM8)
C=CC[C@@H]1/C=C(\C)C[C@H](C)C[C@H](OC)[C@H]2O[C@@](O)(C(=O)C(=O)N3CCCC[C@H]3C(=O)O[C@H](/C(C)=C/[C@@H]3CC[C@@H](O)[C@H](OC)C3)[C@H](C)[C@@H](O)CC1=O)[C@H](C)C[C@@H]2OC [FK506, Tacrolimus]	136	0.004 to 0.012	–
CC1CCC(C(C)C)C(O)C1 (stereo not drawn) [Menthol, menthol]	–	–	up to 70 mins
